Data as given in patent US20040053234A1, “Polynucletides that control delta-6 desaturase genes and methods for identifying compounds for modulating delta-6 desaturase” (priority 2000, published 2004).
Where two headings read alike, the source gives them in different places. Marks after values point to notes of the source that are not given here.

Assays:
delta-6-desaturase = assay type: in vivo, rat; details: for D6D activity: hepatic microsomes
Method: As described in other Examples, female Wistar rats were intraperitoneally (i.p.) injected with 50 mg of streptozotocin per kg of body weight. Three days later, animals received a second dose of streptozotocin (25 mg/kg body weight). Two and 7 weeks after the onset of diabetes, non-fasted control and streptozotocin (blood glucose levels 21 to >33 mmoles/L) treated rats were put under light halothane (15% in mineral oil) anaesthesia and sacrificed by exsanguination between 9:00 and 10:00 a.m. Under these experimental conditions, variations in enzyme activity caused by circadian rhythm (Actis Dato et al., 1973, Lipids, 8: 1-6) can be avoided and a substantial (although submaximal) activity of liver desaturase can be obtained (Actis Dato et al., 1973, Lipids, 8: 1-6 and Inkpen et al., 1969, J. Lipid Res., 10: 277-282). Livers were quickly rinsed with cold 0.9% NaCl solution, weighed and minced with scissors. All procedures were performed at 4° C. unless otherwise specified. Microsomes were isolated by differential ultracentrifugation as previously described (de Antueno et al., 1994, Lipids, 29: 327-331). Briefly, livers were homogenized in a solution (1:3 w/v) containing 0.25 M sucrose, 62 mM potassium phosphate buffer (pH 7.0), 0.15 M KCl, 1.5 mM N-acetylcysteine, 5 mM MgCl2, and 0.1 mM EDTA using 4 strokes of a Potter-Elvehjem tissue homogenizer. […] The absence of mitochondrial contamination was enzymatically assessed as previously described (Kilberg M. S. and Christensen H. N., 1979, Biochemistry, 18: 1525-1530). The protein concentration was measured by the method of Lowry et al. with bovine serum albumin as the standard (Lowry et al., 1951, J. Biol. Chem., 193: 265-275).
(§1) The activities of delta-5 and delta-6 desaturases were determined by measuring the conversion of [1-^14C]20:3n-6 (dihomogamma-linolenic acid) to [1-^14C]20:4n-6 (arachidonic acid) and [1-^14C]18:2n-6 (linoleic acid) to [1-^14C]18:3n-6 (gamma-linolenic acid), respectively. […]
(§2) Radiolabeled fatty acid methyl esters (FAME) were analyzed as previously described (de Antueno et al., 1993, Lipids, 28: 285-290). […]

delta-5-desaturase = experiment: Hepatic delta-5-desaturase activity in streptozotocin treated rats; assay type: in vivo, rat; details: hepatic microsomes
Method: As described in other Examples, female Wistar rats were intraperitoneally (i.p.) injected with 50 mg of streptozotocin per kg of body weight. Three days later, animals received a second dose of streptozotocin (25 mg/kg body weight). Two and 7 weeks after the onset of diabetes, non-fasted control and streptozotocin (blood glucose levels 21 to >33 mmoles/L) treated rats were put under light halothane (15% in mineral oil) anaesthesia and sacrificed by exsanguination between 9:00 and 10:00 a.m. […] The absence of mitochondrial contamination was enzymatically assessed as previously described (Kilberg M. S. and Christensen H. N., 1979, Biochemistry, 18: 1525-1530). The protein concentration was measured by the method of Lowry et al. with bovine serum albumin as the standard (Lowry et al., 1951, J. Biol. Chem., 193: 265-275).
as §1, §2

[1] = Plasma phospholipid arachidonic acid content in streptozotocin-induced diabetic rats; assay type: in vivo, rat
Method: Eighteen rats were injected with 75 mg STZ/kg bd wt to induce the diabetic state. After 4 days the blood glucose level in each of the STZ rats was checked. The blood sample was obtained from the tail vein. […] The diabetic rats were housed 2 per cage. After 2 weeks, approximately one half of the diabetic rats and control rats were sacrificed. After 7 weeks, the remaining diabetic and control rats were sacrificed. By sacrificing controls at the same time we eliminated any possible age effect when completing our data analysis. The rats were sacrificed by exsanguination and tissues were removed for fatty acid analyses. […]
The different lipid classes from the RBCs (phospholipids), plasma and liver (phospholipids, free fatty acids, triglycerides and cholesterol esters) were separated using neutral lipid thin-layer chromatography. […] Compounds were detected by spraying the plates with 2,7-dichlorofluorescein and the silica gel containing each of the lipid class bands was scraped from the plate and placed in screw cap test tubes.
Four ml of BF3-methanol was added to the scraped silica gel fractions or the dry cholesterol ester fraction and heated for 30 min at 90° C. […] The fatty acid methyl esters (FAME) were dissolved in HPLC grade hexane and analyzed by gas chromatography. […]

hD6D-1 control region = experiment: Luciferase activity of HepG2 clones stably transfected with hD6D-1 control region-luciferase construct pGh4015.1; assay type: cell-based, human
Method: Stable transfection was performed using the HepG2 cell line, which was adapted to grow in tissue culture dishes treated with 0.1% gelatin. The day before transfection, the cells were plated into 60 mm tissue culture dishes, so that they were 85-95% confluent on the day of transfection. For each dish of cells to be transfected, 10 μg of plasmid DNA (pGh4015.1) along with 1 μg of the vector pRSV-NEO (ATCC# 37198), was diluted in 500 μl of Opti-MEM (GIBCO-BRL) without serum. For each dish of cells to be transfected, 10 μl of Lipofectamine 2000 reagent (GIBCO BRL) was diluted in 500 μl of Opti-MEM, and incubated at room temperature for 5 min. The diluted DNA was mixed with the diluted lipofectamine and incubated at room temperature for 20 min. The DNA-lipofectamine complexes (1 ml) were put directly into each dish of cells to be transfected and mixed gently by rocking the dish back and forth The cells were incubated at 37° C. in a CO2 incubator for 24 h Each transfected dish of cells was then passaged into two 150 mm tissue culture dishes. The following day, geneticin (GIBCO BRL) was added to the culture medium at a concentration of 800 μg/ml. The cells were kept in selection for 4 weeks. Clones were transferred into a 96-well plate (one clone per well) until they reached confluence. Subsequently, the clones were transferred to a 24-well plate before been tested for luciferase activity.
The luciferase assays were done using the Luciferase Assay System from Promega (Promega, Wis.). Briefly, the cells grown in a 24well plate, were washed with PBS (Ca^2+ and Mg^2+ free) and lysed with about 100 μl of 1× CCLR (Cell Culture Lysis Reagent, Promega). Twenty μl of cell lysate was dispensed into a luminometer tube. The tube was placed in the luminometer (Berthold #9707, Monolight 3010, PharMingen, San Diego, Calif.) and 100 μl of Luciferase Assay Reagent (Promega) was injected into the tube. The luminometer was programmed to perform a 3-second measurement delay followed by a 15-second measurement read for luciferase activity. The results were expressed in Relative Light Unit per 15 seconds (RLU/15s).
The HepG2 stable clone 19 and 72, were plated in a 24-well plate (one plate per clone) treated with 0.1% gelatin, containing α-MEM supplemented with 10% FBS (Fetal Bovine Serum) and 200 μg/ml of geneticin (all from GIBCO BRL). When the cells reached about 80% confluence, the culture medium was replace with Williams' medium E (GIBCO) containing insulin (1 μM), dexamethasone (1 nM) and 0.27% BSA (Bovine Serum Albumin) all from Sigma. Six wells for each plate were treated with DHA at a concentration of 0, 25, 50 and 100 μM. After an incubation time of 6, 24 and 48 h, the wells were washed with PBS and the cells lysed with 100 μl of 1× CCLR (Promega). The luciferase assays were performed using a single tube luminometer using the Luciferase Assay System from Promega as indicated above.

CN(N=O)C(=O)N[C@H]1C(O)O[C@H](CO)[C@@H](O)[C@@H]1O (stereo partly drawn) [STZ, 2-deoxy-2-[([methylnitroso-amino]carbonyl)amino]-D-glucopyranose]
D6D activity (delta-6-desaturase; 2 weeks after STZ treatment): 125.4 ± 34^a pmol/mg microsomal protein/min
D6D activity (delta-6-desaturase; 7 weeks after STZ treatment): 102.8 ± 29^c pmol/mg microsomal protein/min
Reduction of delta-6-desaturase activity in hepatic microsomes compared to control rats (delta-6-desaturase; streptozotocin diabetic rats): 37%
D5D activity (delta-5-desaturase; 2 weeks after STZ treatment): 195.6 ± 56^b pmol/mg microsomal protein/min
D5D activity (delta-5-desaturase; 7 weeks after STZ treatment): 129.7 ± 30^d pmol/mg microsomal protein/min
Reduction of plasma phospholipid AA content ([1]; 2 week streptozotocin-induced diabetic rats): 31%
Reduction of plasma phospholipid AA content ([1]; 7 week streptozotocin-induced diabetic rats): 27%

CC/C=C\C/C=C\C/C=C\C/C=C\C/C=C\C/C=C\CCC(=O)O [DHA, docosahexaenoic acid]
Luciferase activity (hD6D-1 control region; HepG2 clone 19, DHA 25 μM, 6 h): 3.91E+06 RLU/15 s
Luciferase activity (hD6D-1 control region; HepG2 clone 19, DHA 25 μM, 24 h): 8.33E+06 RLU/15 s
Luciferase activity (hD6D-1 control region; HepG2 clone 19, DHA 25 μM, 48 h): 1.35E+07 RLU/15 s
Luciferase activity (hD6D-1 control region; HepG2 clone 19, DHA 50 μM, 6 h): 3.96E+06 RLU/15 s
Luciferase activity (hD6D-1 control region; HepG2 clone 19, DHA 50 μM, 24 h): 6.32E+06 RLU/15 s
Luciferase activity (hD6D-1 control region; HepG2 clone 19, DHA 50 μM, 48 h): 8.73E+06 RLU/15 s
Luciferase activity (hD6D-1 control region; HepG2 clone 19, DHA 100 μM, 6 h): 2.11E+06 RLU/15 s
Luciferase activity (hD6D-1 control region; HepG2 clone 19, DHA 100 μM, 24 h): 3.87E+06 RLU/15 s
Luciferase activity (hD6D-1 control region; HepG2 clone 19, DHA 100 μM, 48 h): 4.16E+06 RLU/15 s
Luciferase activity (hD6D-1 control region; HepG2 clone 72, DHA 25 μM, 6 h): 8.27E+05 RLU/15 s
Luciferase activity (hD6D-1 control region; HepG2 clone 72, DHA 25 μM, 24 h): 2.66E+06 RLU/15 s
Luciferase activity (hD6D-1 control region; HepG2 clone 72, DHA 25 μM, 48 h): 3.68E+06 RLU/15 s
Luciferase activity (hD6D-1 control region; HepG2 clone 72, DHA 50 μM, 6 h): 6.69E+05 RLU/15 s
Luciferase activity (hD6D-1 control region; HepG2 clone 72, DHA 50 μM, 24 h): 1.43E+06 RLU/15 s
Luciferase activity (hD6D-1 control region; HepG2 clone 72, DHA 50 μM, 48 h): 2.18E+06 RLU/15 s
Luciferase activity (hD6D-1 control region; HepG2 clone 72, DHA 100 μM, 6 h): 3.07E+05 RLU/15 s
Luciferase activity (hD6D-1 control region; HepG2 clone 72, DHA 100 μM, 24 h): 8.55E+05 RLU/15 s
Luciferase activity (hD6D-1 control region; HepG2 clone 72, DHA 100 μM, 48 h): 9.80E+05 RLU/15 s
